Reference: ChEMBL document CHEMBL3217566, “Unprecedented inhibition of resistant penicillin binding proteins by bis-2-oxoazetidinyl macrocycles” (Medchemcomm, 2012)

system: Enterococcus faecium; assay: Inhibition of Enterococcus faecium D63r PBP5 assessed as assessed as residual activity at 1 mM after 4 hrs by fluorescence spectroscopy in presence of fluorescein-labeled ampicillin

| Compound | Activity |
| --- | --- |
| CCCCC(=O)N1C[C@H](NC(=O)CCCCCCCCCCC(=O)N[C@H]2CN(C(=O)CCCC)C2=O)C1=O | 3% |
| C=CCCC(=O)N[C@H]1CN(C(=O)CCC=C)C1=O | > 100% |
| C=CCCCCC(=O)N[C@H]1CN(C(=O)CCCCC=C)C1=O | 23% |
| C=CCCCC(=O)N1C[C@H](NC(=O)CCC=C)C1=O | 39% |
| CCCCC(=O)N1C[C@H](NC(=O)CCCC/C=C/CCCCC(=O)N[C@H]2CN(C(=O)CCCC)C2=O)C1=O | 5% |
| C=CCCCCC(=O)N1C[C@H](NC(=O)CCCC=C)C1=O | 15% |
| C=CCCCCC(=O)N1C[C@H](NC(=O)CCC=C)C1=O | 50% |
| C=CCCCCC(=O)N[C@H]1CN(C(=O)CCC=C)C1=O | 14% |
| C=CCCC(=O)N1C[C@H](NC(=O)CCCCCC)C1=O | 6% |
| C=CCCCCC(=O)N[C@H]1CN(C(=O)CCCC)C1=O | 5% |
| CCCCCCC(=O)N[C@H]1CN(C(=O)CCCCCCC(=O)N2C[C@H](NC(=O)CCCCCC)C2=O)C1=O | 10% |
| C=CCCCC(=O)N[C@H]1CN(C(=O)CCC=C)C1=O | 14% |
| C=CCCCCC(=O)N[C@H]1CN(C(=O)CCCC=C)C1=O | 21% |
| C=CCCCC(=O)N[C@H]1CN(C(=O)CCCC=C)C1=O | 17% |
| CCCCCCC(=O)N[C@H]1CN(C(=O)CC/C=C/CCC(=O)N2C[C@H](NC(=O)CCCCCC)C2=O)C1=O | 0% |

system: Actinomadura sp. R39; assay: Inhibition of Actinomadura R39 D,D-peptidase assessed as inhibition of hydrolysis of thiolester substrate S2d measured as residual activity at 100 uM after 1 hr by Ellman's method

| Compound | Activity |
| --- | --- |
| CCCCC(=O)N1C[C@H](NC(=O)CCCCCCCCCCC(=O)N[C@H]2CN(C(=O)CCCC)C2=O)C1=O | 89% |
| C=CCCC(=O)N[C@H]1CN(C(=O)CCC=C)C1=O | 72% |
| C=CCCCCC(=O)N[C@H]1CN(C(=O)CCCCC=C)C1=O | 80% |
| C=CCCCC(=O)N1C[C@H](NC(=O)CCC=C)C1=O | 99% |
| CCCCC(=O)N1C[C@H](NC(=O)CCCC/C=C/CCCCC(=O)N[C@H]2CN(C(=O)CCCC)C2=O)C1=O | 90% |
| C=CCCCCC(=O)N1C[C@H](NC(=O)CCCC=C)C1=O | 86% |
| C=CCCCCC(=O)N1C[C@H](NC(=O)CCC=C)C1=O | 72% |
| C=CCCCCC(=O)N[C@H]1CN(C(=O)CCC=C)C1=O | 91% |
| C=CCCC(=O)N1C[C@H](NC(=O)CCCCCC)C1=O | 92% |
| C=CCCCCC(=O)N[C@H]1CN(C(=O)CCCC)C1=O | 97% |
| CCCCCCC(=O)N[C@H]1CN(C(=O)CCCCCCC(=O)N2C[C@H](NC(=O)CCCCCC)C2=O)C1=O | 74% |
| C=CCCCC(=O)N[C@H]1CN(C(=O)CCC=C)C1=O | 98% |
| C=CCCCCC(=O)N[C@H]1CN(C(=O)CCCC=C)C1=O | 74% |
| C=CCCCC(=O)N[C@H]1CN(C(=O)CCCC=C)C1=O | 90% |
| CCCCCCC(=O)N[C@H]1CN(C(=O)CC/C=C/CCC(=O)N2C[C@H](NC(=O)CCCCCC)C2=O)C1=O | 100% |

system: Staphylococcus aureus; assay: Inhibition of methicillin-resistant Staphylococcus aureus ATCC 43300 PBP5 assessed as residual activity at 1 mM after 4 hrs by fluorescence spectroscopy in presence of fluorescein-labeled ampicillin

| Compound | Activity |
| --- | --- |
| CCCCC(=O)N1C[C@H](NC(=O)CCCCCCCCCCC(=O)N[C@H]2CN(C(=O)CCCC)C2=O)C1=O | 90% |
| C=CCCC(=O)N[C@H]1CN(C(=O)CCC=C)C1=O | 79% |
| C=CCCCCC(=O)N[C@H]1CN(C(=O)CCCCC=C)C1=O | 81% |
| C=CCCCC(=O)N1C[C@H](NC(=O)CCC=C)C1=O | 100% |
| CCCCC(=O)N1C[C@H](NC(=O)CCCC/C=C/CCCCC(=O)N[C@H]2CN(C(=O)CCCC)C2=O)C1=O | 89% |
| C=CCCCCC(=O)N1C[C@H](NC(=O)CCCC=C)C1=O | 82% |
| C=CCCCCC(=O)N1C[C@H](NC(=O)CCC=C)C1=O | 77% |
| C=CCCCCC(=O)N[C@H]1CN(C(=O)CCC=C)C1=O | 89% |
| C=CCCC(=O)N1C[C@H](NC(=O)CCCCCC)C1=O | 100% |
| C=CCCCCC(=O)N[C@H]1CN(C(=O)CCCC)C1=O | 100% |
| CCCCCCC(=O)N[C@H]1CN(C(=O)CCCCCCC(=O)N2C[C@H](NC(=O)CCCCCC)C2=O)C1=O | 99% |
| C=CCCCC(=O)N[C@H]1CN(C(=O)CCC=C)C1=O | 93% |
| C=CCCCCC(=O)N[C@H]1CN(C(=O)CCCC=C)C1=O | 85% |
| C=CCCCC(=O)N[C@H]1CN(C(=O)CCCC=C)C1=O | 100% |
| CCCCCCC(=O)N[C@H]1CN(C(=O)CC/C=C/CCC(=O)N2C[C@H](NC(=O)CCCCCC)C2=O)C1=O | 100% |
